Measurements published in paper PMC6332508, “A Promising PET Tracer for Imaging of α7 Nicotinic Acetylcholine Receptors in the Brain: Design, Synthesis, and in Vivo Evaluation of a Dibenzothiophene-Based Radioligand” (Molecules, 2015).
Several values for one entry are separate records, joined by “and”; a condition that tells them apart may be missing. Equal entries are not always repeated. Where two headings read alike, the source gives them in different places.

Columns and labels:
human α7 nAChR = biological target: T1, human α7 nAChR (Homo sapiens, UniProt P36544); assay: Radioligand displacement at human α7 nAChR, [3H]methyllycaconitine, SH-SY5Y cells; format: binding; settings: for Selectivity (Ki ratio) α7/α3β4: Ki hα3β4 divided by Ki hα7; for Selectivity (Ki ratio) α7/α4β2: Ki hα4β2 divided by Ki hα7
T1 construct: expressed in transfected cells; host or cells: SH-SY5Y

human α4β2 nAChR = biological target: T2, human α4β2 nAChR (Homo sapiens, UniProt P17787+P43681); assay: Radioligand displacement at human α4β2 nAChR, [3H]epibatidine, HEK293 cells; format: binding
T2 construct: expressed in transfected cells; host or cells: HEK293
Experimental: (§1) The affinity of the test compounds for human α4β2 and α3β4 nAChR was determined as described above. In brief, HEK293 cells stably expressing human α4β2 or α3β4 nAChR [66] were cultured. […] Nonspecific binding was determined in the presence of 300 μM (−)-nicotine tartrate. Incubation of the samples, separation of free from receptor-bound radioligand, and data evaluation were performed as described above.

human α3β4 nAChR = biological target: T3, human α3β4 nAChR (Homo sapiens, UniProt P30926+P32297); assay: Radioligand displacement at human α3β4 nAChR, [3H]epibatidine, HEK293 cells; format: binding
T3 construct: expressed in transfected cells; host or cells: HEK293
Experimental: as §1

rat α6β2* nAChR = rat α6β2* nAChR (Rattus norvegicus, UniProt P12390+P43143); assay: [3H]epibatidine binding to antibody-immobilized native rat α6β2* nAChR from striatum; settings: read-out: Affinity (Ki in nM) rα6β2*, immunoimmobilization with anti-rα6 antibody, [3H]epibatidine 0.1 nM
Experimental: The specificity of the anti-α6 antibody was tested as described. The receptors were prepared and immobilized as previously described by the subunit-specific antibody. […] Incubations were performed in a buffer containing 50 mM Tris-HCl, pH 7, 150 mM NaCl, 5 mM KCl, 1 mM MgCl2, 2.5 mM CaCl2, 2 mg∙mL^−1 BSA, and 0.05% Tween 20. Specific ligand binding was defined as total binding minus the binding in the presence of 100 nM (±)-epibatidine dihydrochloride hydrate.
The experimental data obtained from the binding experiments were analyzed by means of a non-linear least square procedure using the LIGAND program. The Ki values of the test compounds were also determined by means of the LIGAND program by simultaneously fitting the data obtained from three to five independent saturation and competition binding experiments.

human 5-HT3 receptor = biological target: T4, human 5-HT3 receptor (Homo sapiens, UniProt P46098); assay: Radioligand binding at human 5-HT3 receptor, [3H]GR65630 (Eurofins Panlabs); settings: read-out: 5-HT3 percentage of inhibition
T4 construct: host or cells: HEK-293
T4 sequence (P46098 24-478): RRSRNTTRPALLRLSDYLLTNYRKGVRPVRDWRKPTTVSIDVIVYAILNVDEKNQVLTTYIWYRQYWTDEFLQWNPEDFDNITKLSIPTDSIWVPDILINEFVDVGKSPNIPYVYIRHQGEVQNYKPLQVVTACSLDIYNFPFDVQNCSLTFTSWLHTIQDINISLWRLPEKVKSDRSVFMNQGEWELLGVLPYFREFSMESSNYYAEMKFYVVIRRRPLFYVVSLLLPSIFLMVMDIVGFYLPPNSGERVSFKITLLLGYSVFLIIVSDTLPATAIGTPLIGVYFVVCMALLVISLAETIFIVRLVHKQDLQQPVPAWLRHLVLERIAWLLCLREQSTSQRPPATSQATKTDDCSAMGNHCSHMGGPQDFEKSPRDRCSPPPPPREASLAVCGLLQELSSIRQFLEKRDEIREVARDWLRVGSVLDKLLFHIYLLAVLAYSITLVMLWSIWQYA

α7 nAChR [1] = settings: [125I]α-bungarotoxin labelled rat cortical membranes; cited from earlier work
α3β4 nAChR = biological target: α3β4 nAChR; set-up: method as in PMID 24050653; settings: rat receptor subtype; cited from earlier work
α4β2 nAChR = settings: cited from earlier work
α7 nAChR [2] = biological target: T5, α7 nAChR (Macaca mulatta, UniProt Q866A2); assay: Comparative PET study in a rhesus monkey; format: in vivo, rhesus monkey (Macaca mulatta)
T5 construct: from tissue; host or cells: brain of a living rhesus monkey
Experimental: One male rhesus monkey (Macaca mulatta, 6 years old, body weight = 10 kg) underwent two PET imaging sessions with [^18F]10a and [^18F]10b, respectively. The scans were conducted 19 days apart. The monkey was initially sedated by intramuscular ketamine at 10 mg∙kg^−1 at ~2 h before the PET scan and anesthetized by 1.5%–3% isoflurane throughout the imaging session. PET scan was performed using a FOCUS-220 PET scanner (Siemens Preclinical Solutions, Knoxville, TN, USA). After a transmission scan, 167 MBq of [^18F]10a (specific activity of 362 GBq∙μmol^−1) or 185 MBq of [^18F]10b (specific activity of 159 GBq·μmol^−1) were administered intravenously. Emission data were acquired in list mode for 240 min. Raw list-mode PET data was histogrammed (frames of 6 × 30 s; 3 × 1 min; 2 × 2 min; 46 × 5 min to scan termination) and reconstructed with 2D filtered back projection, using a 0.15 cm^−1 Shepp filter and including corrections for scanner normalization, detector dead time, randoms, and radiation scatter and attenuation. The PET images were then registered to MR images, acquired with a Siemens 3 T Trio scanner, with a 6-parameter rigid body registration. The MR native space was then normalized using nonlinear affine registration to a high-resolution rhesus monkey atlas using BioImage Suite 3.01 (http://www.bioimagesuite.org/index.html). Time-activity curves were extracted by mapping atlas-defined regions to PET native space using the optimal transformation matrices calculated in the registration and normalization steps. Regions extracted included amygdala, caudate, cerebellum, cingulate, cortical regions (frontal, occipital, and temporal cortex), hippocampus, putamen, thalamus, and pons.

[3] = Affinity (Ki in nM) hα3β4, stably transfected HEK-293 cells, [3H]epibatidine
[4] = stably transfected HEK-293 cells, [3H]epibatidine, read-out: Affinity (Ki in nM) hα4β2
[5] = 0.1 μM concentration of test compound, [3H]GR65630 binding
[6] = stably transfected SH-SY5Y cells, [3H]methyllycaconitine, read-out: Affinity (Ki in nM) hα7
[7] = stably transfected HEK-293 cells, [3H]epibatidine, read-out: Affinity (Ki in nM) hα3β4

T3 sequence (P32297 32-505): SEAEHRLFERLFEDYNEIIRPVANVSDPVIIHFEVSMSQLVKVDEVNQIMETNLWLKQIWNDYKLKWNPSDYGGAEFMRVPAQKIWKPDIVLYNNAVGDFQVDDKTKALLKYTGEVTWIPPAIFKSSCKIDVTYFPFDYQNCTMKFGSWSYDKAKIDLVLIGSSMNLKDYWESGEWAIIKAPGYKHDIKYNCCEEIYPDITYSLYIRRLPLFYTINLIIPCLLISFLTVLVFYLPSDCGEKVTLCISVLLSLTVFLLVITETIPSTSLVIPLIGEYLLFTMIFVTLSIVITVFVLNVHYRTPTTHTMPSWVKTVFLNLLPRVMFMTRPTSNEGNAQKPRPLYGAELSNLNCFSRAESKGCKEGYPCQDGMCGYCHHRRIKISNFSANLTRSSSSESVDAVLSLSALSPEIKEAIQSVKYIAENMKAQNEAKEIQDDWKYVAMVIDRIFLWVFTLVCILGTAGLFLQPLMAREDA
T3 sequence (P30926 22-498): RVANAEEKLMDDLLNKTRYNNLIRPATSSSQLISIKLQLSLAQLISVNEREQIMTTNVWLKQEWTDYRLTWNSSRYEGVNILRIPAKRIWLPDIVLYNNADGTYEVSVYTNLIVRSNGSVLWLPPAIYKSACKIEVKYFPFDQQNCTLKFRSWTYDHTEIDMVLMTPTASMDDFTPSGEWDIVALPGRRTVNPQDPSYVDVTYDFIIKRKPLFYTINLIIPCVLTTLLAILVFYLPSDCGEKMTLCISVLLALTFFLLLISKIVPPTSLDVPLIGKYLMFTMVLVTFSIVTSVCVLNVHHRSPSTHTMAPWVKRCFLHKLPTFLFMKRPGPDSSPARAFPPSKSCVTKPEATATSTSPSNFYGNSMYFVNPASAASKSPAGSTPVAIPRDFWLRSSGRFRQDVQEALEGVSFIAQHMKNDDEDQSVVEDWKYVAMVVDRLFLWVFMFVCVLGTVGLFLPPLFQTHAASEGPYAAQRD
T1 sequence (P36544 23-502): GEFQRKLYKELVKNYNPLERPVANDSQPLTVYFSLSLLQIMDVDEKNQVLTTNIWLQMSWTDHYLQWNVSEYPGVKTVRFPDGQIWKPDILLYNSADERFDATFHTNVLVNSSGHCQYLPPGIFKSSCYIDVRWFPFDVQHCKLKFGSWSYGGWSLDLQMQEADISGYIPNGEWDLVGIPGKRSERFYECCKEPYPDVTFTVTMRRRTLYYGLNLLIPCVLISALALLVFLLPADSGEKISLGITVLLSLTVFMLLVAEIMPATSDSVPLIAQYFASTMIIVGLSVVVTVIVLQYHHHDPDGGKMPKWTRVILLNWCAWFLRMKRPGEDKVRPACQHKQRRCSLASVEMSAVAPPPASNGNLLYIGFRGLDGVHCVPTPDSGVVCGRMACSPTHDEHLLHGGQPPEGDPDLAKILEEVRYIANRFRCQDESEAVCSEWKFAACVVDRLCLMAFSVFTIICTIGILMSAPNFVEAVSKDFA
T2 sequence (P43681 29-627 limits assumed): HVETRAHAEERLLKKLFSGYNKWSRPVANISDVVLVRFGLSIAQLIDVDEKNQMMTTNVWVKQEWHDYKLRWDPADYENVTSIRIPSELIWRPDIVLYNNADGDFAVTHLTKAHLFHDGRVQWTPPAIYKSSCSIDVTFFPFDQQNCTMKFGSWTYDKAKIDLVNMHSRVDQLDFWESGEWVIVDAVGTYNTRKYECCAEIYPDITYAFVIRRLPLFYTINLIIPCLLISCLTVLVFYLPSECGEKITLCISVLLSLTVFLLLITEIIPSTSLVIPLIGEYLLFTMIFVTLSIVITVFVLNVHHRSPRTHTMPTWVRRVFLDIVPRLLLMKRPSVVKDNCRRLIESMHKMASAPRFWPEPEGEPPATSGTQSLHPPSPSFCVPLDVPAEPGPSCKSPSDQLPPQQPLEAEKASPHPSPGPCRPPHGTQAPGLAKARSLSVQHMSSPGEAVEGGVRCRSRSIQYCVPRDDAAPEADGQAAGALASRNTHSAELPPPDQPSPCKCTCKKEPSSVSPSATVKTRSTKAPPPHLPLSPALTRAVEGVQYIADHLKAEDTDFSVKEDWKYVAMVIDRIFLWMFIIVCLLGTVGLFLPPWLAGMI
T2 sequence (P17787 26-502): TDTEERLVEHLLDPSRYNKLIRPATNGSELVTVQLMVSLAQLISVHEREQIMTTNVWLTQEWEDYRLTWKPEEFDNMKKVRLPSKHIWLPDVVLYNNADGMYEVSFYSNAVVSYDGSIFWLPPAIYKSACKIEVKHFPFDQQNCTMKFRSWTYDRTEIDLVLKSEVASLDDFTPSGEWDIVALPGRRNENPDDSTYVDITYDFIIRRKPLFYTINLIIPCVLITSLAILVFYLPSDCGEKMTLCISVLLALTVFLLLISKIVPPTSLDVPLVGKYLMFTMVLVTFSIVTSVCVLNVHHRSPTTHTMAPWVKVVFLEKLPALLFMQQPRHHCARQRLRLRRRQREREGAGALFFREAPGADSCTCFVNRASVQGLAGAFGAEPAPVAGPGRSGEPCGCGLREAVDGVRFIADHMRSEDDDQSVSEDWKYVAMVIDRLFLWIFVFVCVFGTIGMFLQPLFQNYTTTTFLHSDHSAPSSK
rat α6β2* nAChR, sequence (P43143 31-493): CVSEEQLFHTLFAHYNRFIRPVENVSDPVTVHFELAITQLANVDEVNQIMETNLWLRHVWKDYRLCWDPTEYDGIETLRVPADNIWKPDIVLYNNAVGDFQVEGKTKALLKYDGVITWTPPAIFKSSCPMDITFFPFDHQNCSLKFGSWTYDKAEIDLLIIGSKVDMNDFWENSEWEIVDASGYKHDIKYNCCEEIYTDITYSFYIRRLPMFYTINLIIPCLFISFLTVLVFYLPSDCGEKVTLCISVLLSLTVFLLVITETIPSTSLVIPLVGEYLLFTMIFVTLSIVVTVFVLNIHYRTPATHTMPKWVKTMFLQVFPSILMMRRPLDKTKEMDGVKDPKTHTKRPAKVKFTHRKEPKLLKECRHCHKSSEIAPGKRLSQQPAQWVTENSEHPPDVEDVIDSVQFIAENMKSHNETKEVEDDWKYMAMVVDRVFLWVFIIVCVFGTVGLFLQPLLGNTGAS
rat α6β2* nAChR, sequence (P12391 31-464, further chain): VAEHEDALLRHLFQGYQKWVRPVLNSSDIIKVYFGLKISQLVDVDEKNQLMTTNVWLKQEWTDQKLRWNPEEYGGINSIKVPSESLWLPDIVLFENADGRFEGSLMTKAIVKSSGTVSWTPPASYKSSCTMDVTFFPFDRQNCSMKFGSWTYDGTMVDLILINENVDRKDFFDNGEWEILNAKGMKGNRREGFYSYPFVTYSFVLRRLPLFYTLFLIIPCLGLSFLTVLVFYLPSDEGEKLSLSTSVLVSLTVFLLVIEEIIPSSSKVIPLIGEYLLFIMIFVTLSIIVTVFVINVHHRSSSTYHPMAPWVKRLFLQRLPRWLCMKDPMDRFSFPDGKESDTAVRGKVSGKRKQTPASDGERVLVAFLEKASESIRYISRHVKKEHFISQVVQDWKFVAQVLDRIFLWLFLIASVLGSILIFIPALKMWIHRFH
rat α6β2* nAChR, sequence (P12390 25-500): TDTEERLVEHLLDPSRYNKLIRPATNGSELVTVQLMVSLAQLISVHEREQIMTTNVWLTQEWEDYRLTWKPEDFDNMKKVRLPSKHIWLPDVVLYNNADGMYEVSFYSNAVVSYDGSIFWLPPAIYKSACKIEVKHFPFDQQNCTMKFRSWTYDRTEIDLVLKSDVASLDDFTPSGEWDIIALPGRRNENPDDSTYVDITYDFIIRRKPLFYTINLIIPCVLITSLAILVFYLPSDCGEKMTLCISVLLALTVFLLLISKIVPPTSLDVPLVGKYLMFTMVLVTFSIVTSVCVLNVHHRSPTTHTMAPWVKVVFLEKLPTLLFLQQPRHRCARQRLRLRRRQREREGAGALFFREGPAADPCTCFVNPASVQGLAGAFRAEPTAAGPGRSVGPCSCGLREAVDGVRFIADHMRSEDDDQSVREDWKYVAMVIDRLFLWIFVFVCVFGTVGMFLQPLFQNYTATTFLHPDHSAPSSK
T5 sequence (Q866A2 23-502): as the sequence (P36544 23-502) above, with N171S, R186K, V373M, V376A counted along it

For `O=[N+]([O-])c1ccc2c(c1)-c1ccc(N3CCN4CCC3CC4)cc1S2(=O)=O`, the melting point was 291 to 294 °C (dec.).
In the case of `O=S1(=O)c2ccccc2-c2ccc(N3CCN4CCC3CC4)cc21` [Compound 10], the Ki (human α7 nAChR) is reported as 0.51 ± 0.32 nM, the “Selectivity (Ki ratio) α7/α3β4” value (human α7 nAChR) is reported as 97 and the “Selectivity (Ki ratio) α7/α4β2” value (human α7 nAChR) is reported as 623. The Ki (human α4β2 nAChR) was 318 ± 43.3 nM, the Ki (human α3β4 nAChR; [3]) was 49.6 ± 14.7 nM and the Ki (rat α6β2* nAChR) was 517 ± 186 nM. For the same molecule, the inhibition at 0.1 µM (human 5-HT3 receptor) was 35% and the melting point was 238.5 to 240 °C (dec.).
For `O=S1(=O)c2cc(N3CCN4CCC3CC4)ccc2-c2cccc(F)c21` [Compound 10b, 3-(1,4-Diazabicyclo[3.2.2]nonan-4-yl)-6-fluorodibenzo[b,d]thiophene 5,5-dioxide], the Ki (human α4β2 nAChR; [4]) was 211 ± 108 nM, the Ki (human α3β4 nAChR; [3]) was 43 nM and 42.3 nM and the Ki (rat α6β2* nAChR) was 435 ± 152 nM. For the same molecule, the inhibition at 0.1 µM (human 5-HT3 receptor; [5]) was 42%, the Ki (α7 nAChR [1]) was 0.4 nM and the Ki (α3β4 nAChR) was 709 nM.
For `O=S1(=O)c2ccccc2-c2cc(F)c(N3CCN4CCC3CC4)cc21` [Compound 10c, 3-(1,4-Diazabicyclo[3.2.2]nonan-4-yl)-2-fluorodibenzo[b,d]thiophene 5,5-dioxide], the “Selectivity (Ki ratio) α7/α3β4” value (human α7 nAChR) was 33, the “Selectivity (Ki ratio) α7/α4β2” value (human α7 nAChR) was 59 and the “fold lower affinity at the α7 subtype” value (human α7 nAChR; relative to 10a and 10b) was “about 10 fold”. It also gave a Ki (human α7 nAChR; [6]) of 8.53 ± 1.74 nM, a Ki (human α4β2 nAChR) of 507 ± 212 nM and a Ki (human α3β4 nAChR) of 279 ± 24.4 nM. The Ki (rat α6β2* nAChR) was 1390 ± 340 nM, the inhibition at 0.1 µM (human 5-HT3 receptor; [5]) was 26% and the melting point was 305 to 309 °C (dec.).
With `CN1C2CCCC1CN(c1ccc3c(c1)S(=O)(=O)c1ccc(F)cc1-3)C2` [Compound 12a] the “Selectivity (Ki ratio) α7/α3β4” value (human α7 nAChR) was 3, the “Selectivity (Ki ratio) α7/α4β2” value (human α7 nAChR) was 5 and the Ki (human α7 nAChR; [6]) was 30.9 ± 8.72 nM. It also gave a Ki (human α4β2 nAChR; [4]) of 141 ± 11.7 nM, a Ki (human α3β4 nAChR; [3]) of 96 ± 1.48 nM and a Ki (rat α6β2* nAChR) of 1180 ± 360 nM. For the same molecule, the inhibition at 0.1 µM (human 5-HT3 receptor; [5]) was 10% and the melting point was 214 to 217 °C (dec.).
With `CN1C2CCCC1CN(c1ccc3c(c1)S(=O)(=O)c1c(F)cccc1-3)C2` [Compound 12b, 6-Fluoro-3-(9-methyl-3,9-diazabicyclo[3.3.1]nonan-3-yl)dibenzo[b,d]thiophene 5,5-dioxide] the “Selectivity (Ki ratio) α7/α3β4” value (human α7 nAChR) was 1, the “Selectivity (Ki ratio) α7/α4β2” value (human α7 nAChR) was 3 and the Ki (human α7 nAChR; [6]) was 105 ± 23.9 nM. For the same molecule, the Ki (human α4β2 nAChR; [4]) was 301 ± 148 nM, the Ki (human α3β4 nAChR; [3]) was 94.8 ± 6.48 nM and the Ki (rat α6β2* nAChR) was 1190 ± 230 nM. The inhibition at 0.1 µM (human 5-HT3 receptor; [5]) was 11% and the melting point was 264 to 272 °C (dec.).
For `CN1C2CCC1CN(c1ccc3c(c1)S(=O)(=O)c1c(F)cccc1-3)C2` [Compound 13b], the “Selectivity (Ki ratio) α7/α3β4” value (human α7 nAChR) was 5, the “Selectivity (Ki ratio) α7/α4β2” value (human α7 nAChR) was 10 and the Ki (human α7 nAChR; [6]) was 40.9 ± 7.77 nM. For the same molecule, the Ki (human α4β2 nAChR; [4]) was 426 ± 197 nM, the Ki (human α3β4 nAChR; [7]) was 224 ± 51.7 nM and the Ki (rat α6β2* nAChR) was 2260 ± 540 nM. The inhibition at 0.1 µM (human 5-HT3 receptor; [5]) was 10% and the melting point was 260.5 to 262.5 °C (dec.).
In the case of `CN1CC2CCC(C1)N2c1ccc2c(c1)S(=O)(=O)c1c(F)cccc1-2` [Compound 14b], the “Selectivity (Ki ratio) α7/α3β4” value (human α7 nAChR) is reported as greater than 500, the “Selectivity (Ki ratio) α7/α4β2” value (human α7 nAChR) is reported as greater than 400 and the Ki (human α7 nAChR; [6]) is reported as 9.26 ± 2.23 nM. It also gave a Ki (human α4β2 nAChR; [4]) greater than 4000 nM, a Ki (human α3β4 nAChR; [7]) greater than 5000 nM and a Ki (rat α6β2* nAChR) of 1450 ± 370 nM. For the same molecule, the inhibition at 0.1 µM (human 5-HT3 receptor; [5]) was 4% and the melting point was 254.5 to 256 °C (dec.).
For `O=S1(=O)c2cc(N3CCN4CCC3CC4)ccc2-c2cccc(F)c21` [[^18F]10b, reference compound], the Ki (α4β2 nAChR) is listed as 562 nM.
In the case of `O=S1(=O)c2cc(N3CCN4CCC3CC4)ccc2-c2cccc([18F])c21` [[^18F]10b, reference compound], the “total volume of distribution VT” value (α7 nAChR [2]; cerebellum) is reported as 26.8 mL∙cm^−3 and the “total volume of distribution VT” value (α7 nAChR [2]; thalamus) is reported as 46.7 mL∙cm^−3.
For `Fc1ccc(-c2nnc(N3CCN4CCC3CC4)o2)cc1` [[^18F]NS10743], the Ki (α4β2 nAChR) is listed as greater than 10000 nM.
